Test [1] deals with recombinant Escherichia coli KO11. The experiment in a line: Batch fermentation of E. coli KO11 in 1% CSL medium and xylose with nutrient additives: ethanol production and cell growth. Type of test: cell-based. Conditions: for activity at 2000 µg/mL: Escherichia coli. The procedure:
(§1) Two types of media were tested: 1% CSL and Luria broth (LB). Each contained 97 g of either xylose or glucose per liter. Luria Broth consists of, per liter: 10 g Difco® Tryptone, 5 g Difco® Yeast Extract and 5 g NaCl. The 1% CSL medium consists of Corn Steep Liquor (1% w/v) plus mineral salts (mineral salts per liter: 1 g of KH2PO4. 0.5 g of K2HPO4, 3.1 g of (NH4)2SO4, 0.4 g of MgCl2·6H2), and 20 mg FeCl3·6H2O).
(§2) Luria Broth was prepared by autoclaving a 2× nutrient stock containing, per liter: 20 g Difco® Tryptone, 10 g Difo® Yeast Extract, and 10 g NaCl. Sugars (xylose or glucose) were autoclaved separately. A 1% CSL medium was prepared as follows: Commercial Corn Steep Liquor (CSL; 50% dry weight/50% water) was diluted with tap water to make a 20X stock containing 100 g dry weight of Corn Steep Liquor/L and was adjusted to pH 7.2 with NaOH (50%). After sterilization by autoclaving, the 20X CSL stock was clarified by centrifugation at 5000×g for 10 minutes. Magnesium was added as a 100× stock solution (40 g/L MgCl2·6H2O). Iron was added as a 1000× stock solution made by dissolving 20 g FeCl3·6H2O in 175 mL of HCl and adjusting to 1 L with sterile water. Nitrogen, sulfur and phosphorus were added using a 20× stock solution containing the following (per liter): 20 g of KH2PO4, 10 g of K2HPO4 and 62 g of (NH4)2SO4. Stock solutions containing minerals were sterilized separately by autoclaving. Final media was prepared by adding 750 mL of water to 1 L bottle containing 100 g of xylose or glucose.
Inocula were grown in same media used for fermentation and were prepared as follows. Three colonies from a fresh plate were used to inoculate seed cultures: 250-mL flask containing 100 mL medium. These cultures were grown with agitation (120 rpm) for 12-16 hours at 35° C. to a final OD550nm of approximately 2.0-2.5. Cells were harvested by centrifugation at 5000×g for 5 minutes, and resuspended in fresh media to an OD550nm of 0.1. The resulting suspension was distributed into 500-mL beakers containing 345 ml each of fermentation medium. Acetaldehyde was added as indicated. Batch fermentations (35° C., 100 rpm) were maintained at pH 6.5 by the automatic addition of 2N KOH. Cell mass, ethanol, and base addition (2N KOH) were recorded during 96 hours of incubation. […]
(§3) Additives (e.g., as listed in Table 1) were dissolved in 5 mL di-H2O. Solutions with pH lower than 5 were neutralized to pH 6.5 with 2N KOH. Nutritional supplements were then filter-sterilized (0.45 μm filter disk) directly into the fermentation vessel containing the culture. The final concentration of all additives in the culture medium was 2 g/L unless otherwise indicated.
(§4) Cell mass was estimated by measuring OD550nm using Baush & Lomb® Spectronic 70 spectrophotometer. […] Ethanol was measured by gas chromatography using a Varian® 3400 CX gas chromatograph with 1-propanol as an internal standard.
(§5) Tables 1, 3, and 5 show time to completion of fermentation, ethanol production, and volumetric productivity of the fermentation for all concentrations of the compound and the control. Maximum ethanol production is shown in grams/liter (g/L). The ethanol yield is shown in grams of ethanol/grams of added sugar. Maximum volumetric productivity is shown in grams ethanol/(liter)(hour). The average productivity is calculated form the start of fermentation to the completion of fermentation is grams ethanol/(liter)hour).
Tables 2, 4, and 6 show the initial growth of the cells (OD taken after the first 24 hours of fermentation) and the maximum cell density (the time which culture reaches the maximum OD value). […]

The test system is the same in test [2]. The experiment in a line: Batch fermentation of E. coli KO11 in 1% CSL medium and glucose with nutrient additives: ethanol production and cell growth. Conditions: for activity at 2000 µg/mL: Escherichia coli. The test is classed as cell-based. The protocol:
as §1, §2
Inocula were grown in same media used for fermentation and were prepared as follows. Three colonies from a fresh plate were used to inoculate seed cultures: 250-mL flask containing 100 mL medium. These cultures were grown with agitation (120 rpm) for 12-16 hours at 35° C. to a final OD550nm of approximately 2.0-2.5. Cells were harvested by centrifugation at 5000×g for 5 minutes, and resuspended in fresh media to an OD550nm of 0.1. The resulting suspension was distributed into 500-mL beakers containing 345 ml each of fermentation medium. Acetaldehyde was added as indicated. Batch fermentations (35° C., 100 rpm) were maintained at pH 6.5 by the automatic addition of 2N KOH. Cell mass, ethanol, and base addition (2N KOH) were recorded during 96 hours of incubation.
Equivalent amounts of distilled water were added instead of the acetaldehyde in control experiments.
as §3, §4, §5
Tables 2, 4, and 6 show the initial growth of the cells (OD taken after the first 24 hours of fermentation) and the maximum cell density (the time which culture reaches the maximum OD value).
Acetaldehyde was added to the fermentation medium at five different concentrations and time points. […] Where two additions are indicated, the first volume was added at the start of fermentation and the second was added after 8 hours of fermentation.

Where [3] appears, read: 1% CSL+xylose, additive 2 g/L unless indicated.
[4] abbreviates: 1% CSL+glucose, additive 2 g/L unless indicated.
The mark [5] stands for this setting: 24 h, read-out: Initial Growth (OD @ 24 h) % Control, 1% CSL+xylose, additive 2 g/L unless indicated.
The mark [6] stands for this setting: read-out: Ethanol Production Maximum % Control, 1% CSL+xylose, additive 2 g/L unless indicated.
The mark [7] stands for this setting: read-out: Maximum Cell Density % Control, 1% CSL+xylose, additive 2 g/L unless indicated.
The mark [8] stands for this setting: read-out: Volumetric Productivity Average % Control, 1% CSL+xylose, additive 2 g/L unless indicated.
[9] abbreviates: read-out: Volumetric Productivity Maximum % Control, 1% CSL+xylose, additive 2 g/L unless indicated.
Setting [10] is: 24 h, read-out: Initial Growth (OD @ 24 h) % Control, 1% CSL+glucose, additive 2 g/L unless indicated.
The mark [11] stands for this setting: read-out: Ethanol Production Maximum % Control, 1% CSL+glucose, additive 2 g/L unless indicated.
Where [12] appears, read: read-out: Maximum Cell Density % Control, 1% CSL+glucose, additive 2 g/L unless indicated.
Setting [13] is: read-out: Volumetric Productivity Average % Control, 1% CSL+glucose, additive 2 g/L unless indicated.
Setting [14] is: read-out: Volumetric Productivity Maximum % Control, 1% CSL+glucose, additive 2 g/L unless indicated.

In the case of `O=C(O)CC(C(=O)O)C(O)C(=O)O` (centres unmarked) [Isocitrate], in test [1] (setting [3]), the “Ethanol Production Maximum” value is 33.02 g/L, the Ethanol yield is recorded as 0.340 grams of ethanol/grams of added sugar, the “Maximum Cell Density OD” value is on record as 3.01 OD and the “Maximum Cell Density Time” value worked out at 96 h. Moreover, in test [1] (setting [3]), the “Volumetric Productivity Average” value is given as 0.344 grams ethanol/(liter)(hour) and the “Volumetric Productivity Maximum” value was 0.435 grams ethanol/(liter)(hour). The activity at 2000 µg/mL in test [1] (read-out: Maximum Cell Density % Control) stood at 119%. For the same molecule, the activity at 2000 µg/mL in test [1] (read-out: Volumetric Productivity Maximum % Control) was determined as 118%. Moreover, in test [2] (setting [4]), the “Ethanol Production Maximum” value was found to be 33.95 g/L, the Ethanol yield is given as 0.349 grams of ethanol/grams of added sugar, the “Volumetric Productivity Average” value was 0.471 grams ethanol/(liter)(hour) and the “Volumetric Productivity Maximum” value is given as 0.588 grams ethanol/(liter)(hour). The activity at 2000 µg/mL in test [2] (read-out: Ethanol Production Maximum % Control) was determined as 91.8%. The activity at 2000 µg/mL in test [2] (read-out: Volumetric Productivity Average % Control) was 122%.

Turning to `O=C(O)CC(O)C(=O)O` (centres unmarked) [Malate, malate], the “Ethanol Production Maximum” value is listed as 24.43 g/L in test [1] (setting [3]) and 27.58 g/L in test [2] (setting [4]). In addition, the Ethanol yield was 0.252 grams of ethanol/grams of added sugar in test [1] (setting [3]) and 0.284 grams of ethanol/grams of added sugar in test [2] (setting [4]). Besides, the “Initial Growth (OD @ 24 h) OD” value in test [1] (setting [3]) is recorded as 1.71 OD; in test [2] (setting [4]) it was 3.19 OD. Moreover, the “Maximum Cell Density OD” value in test [1] (setting [3]) was determined as 2.42 OD; in test [2] (setting [4]), 3.39 OD. The “Maximum Cell Density Time” value in test [1] (setting [3]) is listed as 96 h. The entries for the “Volumetric Productivity Average” value in test [1] (setting [3]) and in test [2] (setting [4]) were 0.255 grams ethanol/(liter)(hour) and 0.287 grams ethanol/(liter)(hour), respectively. The “Volumetric Productivity Maximum” value is given as 0.274 grams ethanol/(liter)(hour) in test [1] (setting [3]) and 0.498 grams ethanol/(liter)(hour) in test [2] (setting [4]). In addition, the activity at 2000 µg/mL in test [1] (setting [5]) stood at 83.9%; in test [1] (setting [6]), 81.2%; in test [1] (setting [7]), 96.3%; in test [1] (setting [8]) it was 81.2%; in test [1] (setting [9]) it was 74.5%; in test [2] (setting [10]), 119%. The activity at 2000 µg/mL in test [2] (setting [11]) amounted to 74.6%; in test [2] (setting [12]), 126%; in test [2] (setting [13]), 74.6%; in test [2] (setting [14]), 97%.

For `O=C(O)CC(=O)C(=O)O` [Oxaloacetate], the “Ethanol Production Maximum” value in test [1] (setting [3]) turned out to be 23.61 g/L; in test [2] (setting [4]), 39.72 g/L. In addition, the Ethanol yield in test [1] (setting [3]) is 0.243 grams of ethanol/grams of added sugar; in test [2] (setting [4]) it was 0.409 grams of ethanol/grams of added sugar. The figures for the “Initial Growth (OD @ 24 h) OD” value in test [1] (setting [3]) and in test [2] (setting [4]) were 1.65 OD and 3.29 OD, respectively. For the same molecule, the “Maximum Cell Density OD” value is reported as 2.26 OD in test [1] (setting [3]) and 3.46 OD in test [2] (setting [4]). Moreover, the “Maximum Cell Density Time” value in test [1] (setting [3]) worked out at 96 h. For the same molecule, the “Volumetric Productivity Average” value in test [1] (setting [3]) is listed as 0.246 grams ethanol/(liter)(hour); in test [2] (setting [4]) it was 0.552 grams ethanol/(liter)(hour). Also, the entries for the “Volumetric Productivity Maximum” value in test [1] (setting [3]) and in test [2] (setting [4]) were 0.270 grams ethanol/(liter)(hour) and 0.712 grams ethanol/(liter)(hour), respectively. For the same molecule, the activity at 2000 µg/mL in test [1] (setting [5]) amounted to 80.8%; in test [1] (setting [6]), 78.5%; in test [1] (setting [7]), 89.9%; in test [1] (setting [8]), 78.5%; in test [1] (setting [9]), 73.3%; in test [2] (setting [10]), 123%. In addition, the activity at 2000 µg/mL was determined as 107% in test [2] (setting [11]), 129% in test [2] (setting [12]), 143% in test [2] (setting [13]) and 138% in test [2] (setting [14]).

For the molecule `O=C(O)CCC(=O)O` [Succinate, succinate], in test [1] (setting [3]), the “Ethanol Production Maximum” value stood at 35.00 g/L, the “Ethanol Production Maximum % Control” value was found to be 116.35%, the Ethanol yield is 0.360 grams of ethanol/grams of added sugar and the “Initial Growth (OD @ 24 h) % Control” value is reported as 103.40%. For the same molecule, in test [1] (setting [3]), the “Initial Growth (OD @ 24 h) OD” value is 2.11 OD, the “Maximum Cell Density % Control” value was 124.13%, the “Maximum Cell Density OD” value is given as 3.12 OD and the “Maximum Cell Density Time” value came to 96 h. Further, in test [1] (setting [3]), the Time to completion is given as above 96 h, the “Volumetric Productivity Average” value is reported as 0.365 grams ethanol/(liter)(hour), the “Volumetric Productivity Average % Control” value was found to be 116.35% and the “Volumetric Productivity Maximum” value is on record as 0.400 grams ethanol/(liter)(hour). In test [1] (setting [3]), the “Volumetric Productivity Maximum % Control” value was found to be 108.536%. Moreover, in test [2] (setting [4]), the “Ethanol Production Maximum” value stood at 30.13 g/L, the “Ethanol Production Maximum % Control” value amounted to 81.46%, the Ethanol yield is 0.310 grams of ethanol/grams of added sugar and the “Initial Growth (OD @ 24 h) % Control” value is on record as 100.47%. Also, in test [2] (setting [4]), the “Initial Growth (OD @ 24 h) OD” value was 2.69 OD, the “Maximum Cell Density % Control” value amounted to 98.99%, the “Maximum Cell Density OD” value is recorded as 2.66 OD and the “Maximum Cell Density Time” value turned out to be 72 h. In addition, in test [2] (setting [4]), the Time to completion turned out to be 96 h, the “Volumetric Productivity Average” value is 0.314 grams ethanol/(liter)(hour), the “Volumetric Productivity Average % Control” value is recorded as 81.46% and the “Volumetric Productivity Maximum” value is given as 0.511 grams ethanol/(liter)(hour). The “Volumetric Productivity Maximum % Control” value in test [2] (setting [4]) was 99.45%.

Source of the values: patent publication US20020137154A1, “Methods for improving cell growth and alcohol production during fermentation” (priority 2000, published 2002).
